{
  "source": "patent US11103486B2",
  "about": "“Treatment of autoimmune disorders and infections using antagonists of SGK1 activity” (THE JOHNS HOPKINS UNIVERSITY, priority 2011, dated 2021)",
  "system": "JunB",
  "test": "JunB protein levels by immunoblot of nuclear extracts of CD4+ T cells activated under Th2 skewing conditions",
  "type": "cell-based, mice",
  "conditions": "T-SGK1−/− CD4+ T cells activated under Th2 skewing conditions; MG132 added during the final 2 hours of stimulation",
  "method": "(11A) Nuclear and cytoplasmic extracts from Wt and T-SGK1−/− CD4+ T cells. Cells were purified by magnetic separation and stimulated for 72 hours in vitro with anti-CD3 and anti-CD28 and either (Th1) IL-12, IFN-γ, and anti-IL-4, or (Th2) IL-4, anti-IFN-γ, and anti-IL-12p40 skewing conditions. Cells were lysed and separated into nuclear and cytoplasmic fractions. Nuclear extracts were blotted for the expression of JunB, and Lamin B is included as a loading control. Cytosolic fractions were blotted to measure the E3 ligase activity of NEDD4L (S342), and actin is included as a loading control. (11B) Nuclear extract of Wt and T-SGK1−/− treated with MG132. As in A, but with the addition of the proteasome inhibitor MG-132 during the final 2 hours of stimulation. Nuclear fractions were blotted for JunB. (11C) Immunoprecipitates (IPs) of JunB from Wt and T-SGK1−/− CD4+ T cells skewed with IL4 and treated with MG132. As in B, but nuclear fractions were subject to IP with JunB antibody. […] Fold induction of long and short isoforms of TCF1 over no stimulation control, as analyzed by quantitative polymerase chain reaction. […] Cells were restimulated for 4 hours with phorbol 12-myristate 13-acetate (PMA) and ionomycin in the presence of a protein transport inhibitor, and analyzed for production of IFN-γ by intracellular staining. […]",
  "note": "Where a SMILES comes first, the peptide text is derived from it. The star is where a group is joined. Cbz = O=C(OCc1ccccc1)*",
  "data": [
    {"smiles": "CC(C)C[C@@H](C=O)NC(=O)[C@H](CC(C)C)NC(=O)[C@H](CC(C)C)NC(=O)OCc1ccccc1", "note": "[MG132] (Cbz-Leu-Leu-Leu-aldehyde)", "values": [
      {"measurement": "JunB levels (immunoblot, nuclear fraction)", "result": "JunB levels increased"}
    ]}
  ]
}
